Assay results published in US9878982B2, “Pyridine derivatives and anti-mycobacterial use thereof” (priority 2014, dated 2018).
Values after ≈ are worked out from the molar mass of the structure shown.

Columns and labels:
[1] = system: rifampicin-resistant M. tuberculosis strain (rRMP); assay: microbe, parasite or virus in culture; format: cell-based, Mycobacterium tuberculosis; conditions: for MIC: Mycobacterium tuberculosis, read-out: MABA MIC vs. rRMP, rifampicin-resistant M. tuberculosis strain; for MIC / MABA MIC vs. rRMP: two values per compound; for MABA MIC vs. rRMP: rifampicin-resistant M. tuberculosis strain
[2] = system: isoniazide-resistant Mycobacterium tuberculosis strains (rINH); assay: microbe, parasite or virus in culture; format: cell-based; conditions: for MIC: Mycobacterium tuberculosis, read-out: MABA MIC vs. rINH, isoniazide-resistant strain; for MIC / MABA MIC vs. rINH: two values per compound; for MABA MIC vs. rINH: isoniazide-resistant strain

SMILES | inhibitory activity against rifampin-resistant strain (in words) [1] | MIC [1] [µM] | MABA MIC vs. rRMP [1] [µM] | inhibitory activity against isoniazid-resistant strain (in words) [2] | MIC [2] [µM] | MABA MIC vs. rINH [2] [µM]
COc1ncc(-c2ccc(Br)cc2)cc1C(c1ccccc1)C(O)(CCN(C)C)c1cccc2ccccc12 (stereo not drawn) [Compound 133, 1-(5-(4-bromophenyl)-2-methoxypyridin-3-yl)-4-(dimethylamino)-2-(naphthalen-1-yl)-1-phenylbutan-2-ol] | comparable to that of the marketed anti-TB drug, Bedaquiline | 0.24 (≈ 0.14 µg/mL) | 0.34 | comparable to that of the marketed anti-TB drug, Bedaquiline | 0.22 (≈ 0.128 µg/mL) | 0.12
COc1ncc(-c2ccc(Cl)cc2)cc1C(c1ccccc1)C(O)(CCN(C)C)c1cccc2ccccc12 (stereo not drawn) [Compound 115, 1-(5-(4-chlorophenyl)-2-methoxypyridin-3-yl)-4-(dimethylamino)-2-(naphthalen-1-yl)-1-phenylbutan-2-ol] | comparable to that of the marketed anti-TB drug, Bedaquiline | 0.18 (≈ 0.0967 µg/mL) |  | comparable to that of the marketed anti-TB drug, Bedaquiline | 0.11 (≈ 0.0591 µg/mL) | 0.12
NNC(=O)c1ccncc1 [isoniazide, isoniazid, reference compound] |  | 0.83 (≈ 0.114 µg/mL) | 0.65 |  | > 8 | 
COc1nc2ccc(Br)cc2cc1[C@@H](c1ccccc1)[C@@](O)(CCN(C)C)c1cccc2ccccc12 [Bedaquiline, reference compound] |  | 0.12 (≈ 0.0667 µg/mL) | 0.13 |  | 0.07 (≈ 0.0389 µg/mL) | 0.09
CO[C@H]1/C=C/O[C@@]2(C)Oc3c(C)c(O)c4c(O)c(c(/C=N/N5CCN(C)CC5)c(O)c4c3C2=O)NC(=O)/C(C)=C\C=C\[C@H](C)[C@H](O)[C@@H](C)[C@@H](O)[C@@H](C)[C@H](OC(C)=O)[C@@H]1C [rifampin, reference compound] |  | > 4 |  |  | < 0.016 | 
COc1ncc(-c2ccccc2)cc1C(c1ccccc1)C(O)(CCN(C)C)c1cccc2ccccc12 (stereo not drawn) [Compound 9, 4-(dimethylamino)-1-(2-methoxy-5-phenylpyridin-3-yl)-2-(naphthalen-1-yl)-1-phenylbutan-2-ol] |  | 0.9 (≈ 0.452 µg/mL) | 0.91 |  | 0.47 (≈ 0.236 µg/mL) | 0.44
